Assay results reported in patent US9212182B2, “Bicyclic sulfonamide compounds as sodium channel inhibitors” (AMGEN INC., priority 2013, dated 2015).

biological target: Nav 1.7 (Homo sapiens (Human), UniProt Q15858); experiment: in-vitro Nav 1.7 PX (IC50); format: cell-based; settings: not given
Sequence (Q15858 whole entry): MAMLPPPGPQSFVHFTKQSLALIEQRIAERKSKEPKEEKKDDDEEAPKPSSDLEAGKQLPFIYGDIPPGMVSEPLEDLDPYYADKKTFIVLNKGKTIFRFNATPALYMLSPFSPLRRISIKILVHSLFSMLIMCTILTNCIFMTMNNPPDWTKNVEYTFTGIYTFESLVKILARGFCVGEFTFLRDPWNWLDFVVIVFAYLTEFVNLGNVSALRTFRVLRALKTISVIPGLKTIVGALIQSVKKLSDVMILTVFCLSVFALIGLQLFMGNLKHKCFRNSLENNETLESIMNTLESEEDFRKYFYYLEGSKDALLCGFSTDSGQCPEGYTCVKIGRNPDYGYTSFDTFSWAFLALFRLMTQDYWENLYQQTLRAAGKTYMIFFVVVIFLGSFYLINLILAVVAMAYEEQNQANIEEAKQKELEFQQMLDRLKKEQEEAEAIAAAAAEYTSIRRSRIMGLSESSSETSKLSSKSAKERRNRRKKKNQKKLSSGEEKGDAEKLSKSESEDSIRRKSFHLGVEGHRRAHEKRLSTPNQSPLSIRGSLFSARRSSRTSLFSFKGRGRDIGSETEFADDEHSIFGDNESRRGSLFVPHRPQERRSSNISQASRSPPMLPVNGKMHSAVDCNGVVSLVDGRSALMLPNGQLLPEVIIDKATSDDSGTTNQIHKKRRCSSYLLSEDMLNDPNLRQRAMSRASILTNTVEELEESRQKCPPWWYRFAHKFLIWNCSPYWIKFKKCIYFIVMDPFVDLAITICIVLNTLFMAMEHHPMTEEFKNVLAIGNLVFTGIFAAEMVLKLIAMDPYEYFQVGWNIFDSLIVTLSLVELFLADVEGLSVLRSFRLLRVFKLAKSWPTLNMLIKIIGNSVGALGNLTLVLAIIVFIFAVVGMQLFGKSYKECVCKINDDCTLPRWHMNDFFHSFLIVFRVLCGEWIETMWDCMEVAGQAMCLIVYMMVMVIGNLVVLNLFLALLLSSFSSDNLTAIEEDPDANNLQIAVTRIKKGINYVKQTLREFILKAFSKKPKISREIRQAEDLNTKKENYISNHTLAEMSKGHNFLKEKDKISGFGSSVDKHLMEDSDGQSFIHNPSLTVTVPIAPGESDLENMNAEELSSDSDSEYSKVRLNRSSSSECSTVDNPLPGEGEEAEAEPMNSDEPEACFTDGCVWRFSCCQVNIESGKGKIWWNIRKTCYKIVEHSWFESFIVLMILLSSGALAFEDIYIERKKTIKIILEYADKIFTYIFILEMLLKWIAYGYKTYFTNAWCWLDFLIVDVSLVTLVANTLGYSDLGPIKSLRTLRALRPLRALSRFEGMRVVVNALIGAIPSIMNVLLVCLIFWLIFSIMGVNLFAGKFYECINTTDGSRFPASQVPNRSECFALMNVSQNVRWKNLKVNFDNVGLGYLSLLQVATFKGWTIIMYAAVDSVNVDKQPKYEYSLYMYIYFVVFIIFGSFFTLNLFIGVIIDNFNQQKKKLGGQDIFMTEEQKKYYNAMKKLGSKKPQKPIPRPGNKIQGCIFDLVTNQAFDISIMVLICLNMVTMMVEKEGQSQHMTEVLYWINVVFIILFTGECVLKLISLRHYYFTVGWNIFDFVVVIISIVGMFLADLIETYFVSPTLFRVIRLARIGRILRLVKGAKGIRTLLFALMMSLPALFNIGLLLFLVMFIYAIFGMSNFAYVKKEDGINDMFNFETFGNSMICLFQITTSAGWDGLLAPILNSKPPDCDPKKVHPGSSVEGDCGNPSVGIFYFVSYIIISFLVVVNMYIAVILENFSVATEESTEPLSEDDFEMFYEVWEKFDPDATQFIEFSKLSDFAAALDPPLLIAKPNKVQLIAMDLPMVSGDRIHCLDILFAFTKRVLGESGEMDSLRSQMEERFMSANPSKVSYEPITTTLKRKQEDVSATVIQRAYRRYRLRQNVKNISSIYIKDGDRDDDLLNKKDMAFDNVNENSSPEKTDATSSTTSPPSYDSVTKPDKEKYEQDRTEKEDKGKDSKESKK

Structure (SMILES)	IC50 [nM]
COc1cc(-c2ccc(Cl)c(C)c2)c(Cl)cc1-n1c(=O)ccc2cc(S(=O)(=O)Nc3ccon3)ccc21 (atropisomer, axis not shown; (M)) [Example 472, (M)-1-(2,4′-dichloro-5-methoxy-3′-methyl-[1,1′-biphenyl]-4-yl)-N-(isoxazol-3-yl)-2-oxo-1,2-dihydroquinoline-6-sulfonamide]	786
COc1nc(Oc2cccc(Cl)c2C)c(Cl)cc1-n1c(=O)ccc2cc(S(=O)(=O)Nc3ccon3)ccc21 [Example 1226, 1-(5-chloro-6-(3-chloro-2-methylphenoxy)-2-methoxy-3-pyridinyl)-N-3-isoxazolyl-2-oxo-1,2-dihydro-6-quinolinesulfonamide]	316
COc1ccc(-c2cncc(Cl)c2)cc1-n1c(=O)ccc2cc(S(=O)(=O)Nc3ccon3)ccc21 [Example 494, 1-(5-(5-chloro-3-pyridinyl)-2-methoxyphenyl)-N-3-isoxazolyl-2-oxo-1,2-dihydro-6-quinolinesulfonamide]	682
O=c1ccc2cc(S(=O)(=O)Nc3ccon3)ccc2n1[C@@H]1CC[C@@H](c2cccc(F)c2)C1 [Example 1143, 1-((1R,3R)-3-(3-fluorophenyl)cyclopentyl)-N-3-isoxazolyl-2-oxo-1,2-dihydro-6-quinolinesulfonamide, 1-((1R,3S)-3-(3-fluorophenyl)cyclopentyl)-N-3-isoxazolyl-2-oxo-1,2-dihydro-6-quinolinesulfonamide, 1-((1S,3R)-3-(3-fluorophenyl)cyclopentyl)-N-3-isoxazolyl-2-oxo-1,2-dihydro-6-quinolinesulfonamide, 1-((1S,3S)-3-(3-fluorophenyl)cyclopentyl)-N-3-isoxazolyl-2-oxo-1,2-dihydro-6-quinolinesulfonamide]	8910
N#CCOc1cc(-c2cccc(F)c2)c(F)cc1-n1c(=O)ccc2cc(S(=O)(=O)Nc3ccon3)ccc21 [Example 387, 1-(5-(cyanomethoxy)-2,3′-difluoro-[1,1′-biphenyl]-4-yl)-N-(isoxazol-3-yl)-2-oxo-1,2-dihydroquinoline-6-sulfonamide]	89
COc1nc(OCc2ccc(F)c(F)c2F)c(Cl)cc1-n1c(=O)ccc2cc(S(=O)(=O)Nc3ccon3)ccc21 [Example 1216, 1-(5-chloro-2-methxy-6-((2,3,4-trifluorobenzyl)oxy)-3-pyridinyl)-N-3-isoxazolyl-2-oxo-1,2-dihydro-6-quinolinesulfonamide]	119
COc1ccc(-c2ccnc(F)c2)cc1-n1c(=O)ccc2cc(S(=O)(=O)Nc3ccon3)ccc21 [Example 496, 1-(5-(2-fluoro-4-pyridinyl)-2-methoxyphenyl)-N-3-isoxazolyl-2-oxo-1,2-dihydro-6-quinolinesulfonamide]	2770

Second part, the molecule after the results:

IC50 [nM]	Structure (SMILES)
10	COc1cc(-c2cc(F)cc(Cl)c2)c(C#N)cc1-n1c(=O)ccc2cc(S(=O)(=O)Nc3ccon3)ccc21 (atropisomer, axis not shown; (P)) [Example 433, (P)-1-(3′-chloro-2-cyano-5′-fluoro-5-methoxy-4-biphenylyl)-N-3-isoxazolyl-2-oxo-1,2-dihydro-6-quinolinesulfonamide]
805	COc1cnc(-c2cc(Cl)ccc2F)cc1-n1c(=O)ccc2cc(S(=O)(=O)Nc3ccon3)ccc21 [Example 1169, 1-(2-(5-chloro-2-fluorophenyl)-5-methoxy-4-pyridinyl)-N-3-isoxazolyl-2-oxo-1,2-dihydro-6-quinolinesulfonamide]

same assay, conditions: in-vitro Nav 1.7 PX data

Structure (SMILES)	IC50 [nM]
COc1cc(-c2cccc(Cl)c2OC)ccc1-n1c(=O)ccc2cc(S(=O)(=O)Nc3ccon3)ccc21 [Example 815, 1-(3′-chloro-2′,3-dimethoxy-4-biphenylyl)-N-3-isoxazolyl-2-oxo-1,2-dihydro-6-quinolinesulfonamide]	56
COc1cnc(-c2cc(F)cc(Cl)c2)cc1-n1c(=O)ccc2cc(S(=O)(=O)Nc3ccon3)ccc21 [Example 618, 1-(2-(3-chloro-5-fluorophenyl)-5-methoxy-4-pyridinyl)-N-3-isoxazolyl-2-oxo-1,2-dihydro-6-quinolinesulfonamide]	605
COc1cc(F)cc(-c2ccc(-n3c(=O)ccc4cc(S(=O)(=O)Nc5ccnc(C)n5)ccc43)c(OC)c2)c1 [Example 1003, 1-(3′-fluoro-3,5′-dimethoxy-4-biphenylyl)-N-(2-methyl-4-pyrimidinyl)-2-oxo-1,2-dihydro-6-quinolinesulfonamide]	1260
COc1cc([C@H]2CC[C@@H](C)CC2)c(F)cc1-n1c(=O)ccc2cc(S(=O)(=O)Nc3ccon3)ccc21 [Example 1083, 1-(5-fluoro-2-methoxy-4-(cis-4-methylcyclohexyl)phenyl)-N-3-isoxazolyl-2-oxo-1,2-dihydro-6-quinolinesulfonamide, 1-(5-fluoro-2-methoxy-4-(trans-4-methylcyclohexyl)phenyl)-N-3-isoxazolyl-2-oxo-1,2-dihydro-6-quinolinesulfonamide]	10
COc1cc(-c2ccc(C(F)(F)F)cc2)c(F)cc1-n1c(=O)ccc2cc(S(=O)(=O)Nc3ccnc(C)n3)ccc21 [Example 799, 1-(2-fluoro-5-methoxy-4′-(trifluoromethyl)-4-biphenylyl)-N-(2-methyl-4-pyrimidinyl)-2-oxo-1,2-dihydro-6-quinolinesulfonamide]	59
COc1cccc(-c2ccc(OC)c(-n3c(=O)ccc4cc(S(=O)(=O)Nc5ccon5)ccc43)c2)c1 [Example 847, 1-(3′,4-dimethoxy-3-biphenylyl)-N-3-isoxazolyl-2-oxo-1,2-dihydro-6-quinolinesulfonamide]	403
COc1cc(-c2cccc(OC(C)C)c2)ccc1-n1c(=O)ccc2cc(S(=O)(=O)Nc3ncccn3)ccc21 [Example 828, 1-(3-methoxy-3′-(1-methylethoxy)-4-biphenylyl)-2-oxo-N-2-pyrimidinyl-1,2-dihydro-6-quinolinesulfonamide]	613
COc1ccc(-c2cccc(Cl)c2)cc1-n1c(=O)ccc2cc(S(=O)(=O)Nc3ccon3)ccc21 [Example 852, 1-(3′-chloro-4-methoxy-3-biphenylyl)-N-3-isoxazolyl-2-oxo-1,2-dihydro-6-quinolinesulfonamide]	22
COc1cc(-c2ccc(-n3c(=O)ccc4cc(S(=O)(=O)Nc5ccon5)ccc43)c(OC)c2)ccc1F [Example 1017, 1-(4′-fluoro-3,3′-dimethoxy-4-biphenylyl)-N-3-isoxazolyl-2-oxo-1,2-dihydro-6-quinolinesulfonamide]	80
COc1ccc(-c2cc(F)cc(Cl)c2)cc1-n1c(=O)ccc2cc(S(=O)(=O)Nc3cccnn3)ccc21 [Example 861, 1-(3′-chloro-5′-fluoro-4-methoxy-3-biphenylyl)-2-oxo-N-3-pyridazinyl-1,2-dihydro-6-quinolinesulfonamide]	38
COc1cc(-c2cccc(C(F)(F)F)c2)ccc1-n1c(=O)ccc2cc(S(=O)(=O)Nc3cnc(C)cn3)ccc21 [Example 949, 1-(3-methoxy-3′-(trifluoromethyl)-4-biphenylyl)-N-(5-methyl-2-pyrazinyl)-2-oxo-1,2-dihydro-6-quinolinesulfonamide]	1240
COc1cc(-c2ccc(-n3c(=O)ccc4cc(S(=O)(=O)Nc5ccon5)ccc43)c(OC)c2)ccc1Cl [Example 1027, 1-(4′-chloro-3,3′-dimethoxy-4-biphenylyl)-N-3-isoxazolyl-2-oxo-1,2-dihydro-6-quinolinesulfonamide]	32

Now from value to molecule:

IC50 [nM]	Structure (SMILES)
186	COc1cc(-c2ccc(Cl)c(C)c2)c(F)cc1-n1c(=O)ccc2cc(S(=O)(=O)Nc3ccc(F)cn3)ccc21 (atropisomer, axis not shown; (P)) [Example 693, (P)-1-(4′-chloro-2-fluoro-5-methoxy-3′-methyl-4-biphenylyl)-N-(5-fluoro-2-pyridinyl)-2-oxo-1,2-dihydro-6-quinolinesulfonamide]
32	COc1cc(-c2cncc(C(F)(F)F)c2)c(F)cc1-n1c(=O)ccc2cc(S(=O)(=O)Nc3ccon3)ccc21 [Example 721, 1-(5-fluoro-2-methoxy-4-(5-(trifluoromethyl)-3-pyridinyl)phenyl)-N-3-isoxazolyl-2-oxo-1,2-dihydro-6-quinolinesulfonamide]
6	COc1cc(-c2cc(C)ccc2Cl)c(F)cc1-n1c(=O)ccc2cc(S(=O)(=O)Nc3ccon3)ccc21 [Example 716, 1-(2′-chloro-2-fluoro-5-methoxy-5′-methyl-4-biphenylyl)-N-3-isoxazolyl-2-oxo-1,2-dihydro-6-quinolinesulfonamide]
153	COc1ccc(C#N)cc1-c1cc(OC)c(-n2c(=O)ccc3cc(S(=O)(=O)Nc4ccon4)ccc32)cc1F [Example 718, 1-(5′-cyano-2-fluoro-2′,5-dimethoxy-4-biphenylyl)-N-3-isoxazolyl-2-oxo-1,2-dihydro-6-quinolinesulfonamide]
81	COc1cc(-c2cccc(OC)c2F)c(F)cc1-n1c(=O)ccc2cc(S(=O)(=O)Nc3ccon3)ccc21 [Example 734, 1-(2,2′-difluoro-3′,5-dimethoxy-4-biphenylyl)-N-3-isoxazolyl-2-oxo-1,2-dihydro-6-quinolinesulfonamide]

same assay, conditions: in-vitro PatchXpress (PX)

IC50 [nM]	Structure (SMILES)
16	COc1cc(-c2cc(Cl)cc(C#N)c2)c(F)cc1-n1c(=O)ccc2cc(S(=O)(=O)Nc3ccon3)ccc21 (atropisomer, axis not shown; (M)) [Example 519, (M)-1-(3′-chloro-5′-cyano-2-fluoro-5-methoxy-4-biphenylyl)-N-3-isoxazolyl-2-oxo-1,2-dihydro-6-quinolinesulfonamide]
31	COc1cc(-c2cc(C)cc(C#N)c2)c(F)cc1-n1c(=O)ccc2cc(S(=O)(=O)Nc3ccon3)ccc21 (atropisomer, axis not shown; (P)) [Example 526, (P)-1-(3′-cyano-2-fluoro-5-methoxy-5′-methyl-4-biphenylyl)-N-3-isoxazolyl-2-oxo-1,2-dihydro-6-quinolinesulfonamide]
7	COc1cc(-c2ccc(C)c(Cl)c2)c(F)cc1-n1c(=O)ccc2cc(S(=O)(=O)Nc3ccon3)ccc21 (atropisomer, axis not shown; (P)) [Example 528, (P)-1-(3′-chloro-2-fluoro-5-methoxy-4′-methyl-4-biphenylyl)-N-3-isoxazolyl-2-oxo-1,2-dihydro-6-quinolinesulfonamide]
